Test results: PubChem BioAssay (NCI)
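Briefly, cells in 96-well plates were exposed to five compound concentrations for 48 h, and endpoints were estimated by linear interpolation. TGI: total growth inhibition.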

Key:
Test in all cases: inhibition of tumour cell growth, NCI panel, 48 h
TK-10 renal = test system: TK-10 renal
T-47D breast = test system: T-47D breast
UACC-62 melanoma = test system: UACC-62 melanoma
MCF7 breast = test system: MCF7 breast
HT29 colon = test system: HT29 colon
EKVX NSCLC = test system: EKVX NSCLC
HL-60(TB) leukemia = test system: HL-60(TB) leukemia
MDA-N = test system: MDA-N
KM12 colon = test system: KM12 colon
UO-31 renal = test system: UO-31 renal
SNB-75 CNS = test system: SNB-75 CNS
ACHN renal = test system: ACHN renal
OVCAR-3 ovarian = test system: OVCAR-3 ovarian
K-562 leukemia = test system: K-562 leukemia
SK-MEL-2 melanoma = test system: SK-MEL-2 melanoma
U251 CNS = test system: U251 CNS
COLO 205 colon = test system: COLO 205 colon
LOX IMVI melanoma = test system: LOX IMVI melanoma
OVCAR-5 ovarian = test system: OVCAR-5 ovarian
MOLT-4 leukemia = test system: MOLT-4 leukemia
OVCAR-8 ovarian = test system: OVCAR-8 ovarian
RPMI-8226 leukemia = test system: RPMI-8226 leukemia
MDA-MB-435 = test system: MDA-MB-435
SF-295 CNS = test system: SF-295 CNS
IGROV1 ovarian = test system: IGROV1 ovarian
SR leukemia = test system: SR leukemia
NCI-H522 lung = test system: NCI-H522 lung
786-0 renal = test system: 786-0 renal
MDA-MB-231 breast = test system: MDA-MB-231 breast
MALME-3M melanoma = test system: MALME-3M melanoma
NCI/ADR-RES ovarian = test system: NCI/ADR-RES ovarian
DU-145 prostate = test system: DU-145 prostate
SF-268 CNS = test system: SF-268 CNS
PC-3 prostate = test system: PC-3 prostate
HCC-2998 colon = test system: HCC-2998 colon
HCT-15 colon = test system: HCT-15 colon
UACC-257 melanoma = test system: UACC-257 melanoma
NCI-H23 lung = test system: NCI-H23 lung
NCI-H226 lung = test system: NCI-H226 lung
CAKI-1 renal = test system: CAKI-1 renal
HS 578T breast = test system: HS 578T breast
SNB-19 CNS = test system: SNB-19 CNS
SN12C renal = test system: SN12C renal
HCT-116 colon = test system: HCT-116 colon
NCI-H460 lung = test system: NCI-H460 lung
SK-MEL-28 melanoma = test system: SK-MEL-28 melanoma
BT-549 breast = test system: BT-549 breast
OVCAR-4 ovarian = test system: OVCAR-4 ovarian
SK-MEL-5 melanoma = test system: SK-MEL-5 melanoma
RXF 393 renal = test system: RXF 393 renal
A498 renal = test system: A498 renal
SW-620 colon = test system: SW-620 colon
HOP-62 NSCLC = test system: HOP-62 NSCLC
CCRF-CEM leukemia = test system: CCRF-CEM leukemia
SF-539 CNS = test system: SF-539 CNS
SK-OV-3 ovarian = test system: SK-OV-3 ovarian
A549 NSCLC = test system: A549 NSCLC
HOP-92 NSCLC = test system: HOP-92 NSCLC
M14 melanoma = test system: M14 melanoma

Q: What does the source list for `CN(C)C(=O)Oc1ccc[n+](C)c1`?
A: TGI (TK-10 renal): > 100 µM; TGI (T-47D breast): > 100 µM; TGI (UACC-62 melanoma): > 100 µM; TGI (MCF7 breast): > 100 µM; TGI (HT29 colon): > 100 µM; TGI (EKVX NSCLC): > 100 µM; TGI (HL-60(TB) leukemia): > 100 µM; TGI (MDA-N): > 100 µM; TGI (KM12 colon): > 100 µM; TGI (UO-31 renal): > 100 µM; TGI (SNB-75 CNS): > 100 µM; TGI (ACHN renal): > 100 µM; TGI (OVCAR-3 ovarian): > 100 µM; TGI (K-562 leukemia): > 100 µM; TGI (SK-MEL-2 melanoma): > 100 µM; TGI (U251 CNS): > 100 µM; TGI (COLO 205 colon): > 100 µM; TGI (LOX IMVI melanoma): > 100 µM; TGI (OVCAR-5 ovarian): > 100 µM; TGI (MOLT-4 leukemia): > 100 µM; TGI (OVCAR-8 ovarian): > 100 µM; TGI (RPMI-8226 leukemia): > 100 µM; TGI (MDA-MB-435): > 100 µM; TGI (SF-295 CNS): > 100 µM; TGI (IGROV1 ovarian): > 100 µM; TGI (SR leukemia): > 100 µM; TGI (NCI-H522 lung): > 100 µM; TGI (786-0 renal): > 100 µM; TGI (MDA-MB-231 breast): > 100 µM; TGI (MALME-3M melanoma): > 100 µM; TGI (NCI/ADR-RES ovarian): > 100 µM; TGI (DU-145 prostate): > 100 µM; TGI (SF-268 CNS): > 100 µM; TGI (PC-3 prostate): > 100 µM; TGI (HCC-2998 colon): > 100 µM; TGI (HCT-15 colon): > 100 µM; TGI (UACC-257 melanoma): > 100 µM; TGI (NCI-H23 lung): > 100 µM; TGI (NCI-H226 lung): > 100 µM; TGI (CAKI-1 renal): > 100 µM; TGI (HS 578T breast): > 100 µM; TGI (SNB-19 CNS): > 100 µM; TGI (SN12C renal): > 100 µM; TGI (HCT-116 colon): > 100 µM; TGI (NCI-H460 lung): > 100 µM; TGI (SK-MEL-28 melanoma): > 100 µM; TGI (BT-549 breast): > 100 µM; TGI (OVCAR-4 ovarian): > 100 µM; TGI (SK-MEL-5 melanoma): > 100 µM; TGI (RXF 393 renal): > 100 µM; TGI (A498 renal): > 100 µM; TGI (SW-620 colon): > 100 µM; TGI (HOP-62 NSCLC): > 100 µM

Q: Which TGI (TK-10 renal) does the source give for `O=C1CNN=C(CSc2nc3ccc(I)cc3c(=O)n2Cc2ccccc2)N1` here?
A: The TGI was 78.3 µM.

Q: What about the TGI (T-47D breast) of the same molecule?
A: The TGI was 43.5 µM.

Q: What about the TGI (UACC-62 melanoma) of the same molecule?
A: The TGI was 32.6 µM.

Q: And the TGI (MCF7 breast)?
A: Its TGI is > 100 µM.

Q: And the TGI (HT29 colon)?
A: The TGI was > 100 µM.

Q: And the TGI (EKVX NSCLC)?
A: The TGI was > 100 µM.

Q: What about the TGI (HL-60(TB) leukemia) of the same molecule?
A: Its TGI is 4.03 µM.

Q: And the TGI (MDA-N)?
A: The TGI was 87.2 µM.

Q: What about the TGI (KM12 colon) of the same molecule?
A: The TGI was 93.2 µM.

Q: What about the TGI (UO-31 renal) of the same molecule?
A: Its TGI is 4.37 µM.

Q: And the TGI (SNB-75 CNS)?
A: The TGI was 35.8 µM.

Q: What about the TGI (ACHN renal) of the same molecule?
A: The TGI was 31.6 µM.

Q: And the TGI (OVCAR-3 ovarian)?
A: Its TGI is 45.1 µM.

Q: What about the TGI (CCRF-CEM leukemia) of the same molecule?
A: The TGI was 50.5 µM.

Q: And the TGI (K-562 leukemia)?
A: The TGI was > 100 µM.

Q: What about the TGI (SK-MEL-2 melanoma) of the same molecule?
A: The TGI was 34.7 µM.

Q: What about the TGI (U251 CNS) of the same molecule?
A: The TGI was 52 µM.

Q: What about the TGI (COLO 205 colon) of the same molecule?
A: Its TGI is 28.4 µM.

Q: What about the TGI (LOX IMVI melanoma) of the same molecule?
A: The TGI was 33.4 µM.

Q: What about the TGI (OVCAR-5 ovarian) of the same molecule?
A: Its TGI is > 100 µM.

Q: And the TGI (MOLT-4 leukemia)?
A: Its TGI is > 100 µM.

Q: What about the TGI (OVCAR-8 ovarian) of the same molecule?
A: The TGI was 94.7 µM.

Q: What about the TGI (SF-539 CNS) of the same molecule?
A: The TGI was 58.3 µM.

Q: What about the TGI (SK-OV-3 ovarian) of the same molecule?
A: Its TGI is > 100 µM.

Q: What about the TGI (RPMI-8226 leukemia) of the same molecule?
A: Its TGI is 91.9 µM.

Q: And the TGI (MDA-MB-435)?
A: The TGI was 97.6 µM.

Q: And the TGI (SF-295 CNS)?
A: Its TGI is 59.7 µM.

Q: And the TGI (IGROV1 ovarian)?
A: The TGI was 55.6 µM.

Q: What about the TGI (SR leukemia) of the same molecule?
A: The TGI was 92.3 µM.

Q: What about the TGI (NCI-H522 lung) of the same molecule?
A: Its TGI is 68.6 µM.

Q: And the TGI (786-0 renal)?
A: Its TGI is > 100 µM.

Q: And the TGI (MDA-MB-231 breast)?
A: Its TGI is 38.9 µM.

Q: What about the TGI (MALME-3M melanoma) of the same molecule?
A: The TGI was 54.2 µM.

Q: And the TGI (NCI/ADR-RES ovarian)?
A: Its TGI is 77.1 µM.

Q: What about the TGI (DU-145 prostate) of the same molecule?
A: Its TGI is 53.4 µM.

Q: And the TGI (SF-268 CNS)?
A: Its TGI is 57.7 µM.

Q: What about the TGI (PC-3 prostate) of the same molecule?
A: Its TGI is 79.6 µM.

Q: And the TGI (HCC-2998 colon)?
A: The TGI was 81.7 µM.

Q: What about the TGI (HCT-15 colon) of the same molecule?
A: The TGI was > 100 µM.

Q: What about the TGI (UACC-257 melanoma) of the same molecule?
A: Its TGI is 70.7 µM.

Q: And the TGI (A549 NSCLC)?
A: The TGI was > 100 µM.

Q: What about the TGI (NCI-H23 lung) of the same molecule?
A: The TGI was > 100 µM.

Q: What about the TGI (NCI-H226 lung) of the same molecule?
A: The TGI was 42.4 µM.

Q: What about the TGI (CAKI-1 renal) of the same molecule?
A: The TGI was 34.3 µM.

Q: What about the TGI (HOP-92 NSCLC) of the same molecule?
A: Its TGI is 72 µM.

Q: What about the TGI (HS 578T breast) of the same molecule?
A: The TGI was > 100 µM.

Q: And the TGI (SNB-19 CNS)?
A: The TGI was > 100 µM.

Q: And the TGI (SN12C renal)?
A: The TGI was 34.3 µM.

Q: What about the TGI (HCT-116 colon) of the same molecule?
A: The TGI was 50.7 µM.

Q: And the TGI (NCI-H460 lung)?
A: Its TGI is > 100 µM.

Q: And the TGI (M14 melanoma)?
A: The TGI was > 100 µM.

Q: What about the TGI (SK-MEL-28 melanoma) of the same molecule?
A: Its TGI is 44.4 µM.

Q: What about the TGI (BT-549 breast) of the same molecule?
A: The TGI was 86.3 µM.

Q: What about the TGI (OVCAR-4 ovarian) of the same molecule?
A: The TGI was > 100 µM.

Q: And the TGI (SK-MEL-5 melanoma)?
A: The TGI was 30.6 µM.

Q: And the TGI (A498 renal)?
A: Its TGI is 94.1 µM.

Q: What about the TGI (SW-620 colon) of the same molecule?
A: Its TGI is > 100 µM.

Q: And the TGI (HOP-62 NSCLC)?
A: The TGI was > 100 µM.
